Source: patent US12109301B2, “Formulations, methods, and systems for treating genitourinary conditions” (Massachusetts Institute of Technology, priority 2017, dated 2024)
Like-named read-outs stand apart in the source and are kept apart here.

How the values were obtained:
[1] = tested on: human ureteral smooth muscle cell (hUSMC); test: High throughput screening (HTS) of hUSMC relaxation (p-MLC vs unphosphorylated MLC, single-cell analysis); format: cell-based; details: for relaxation of smooth muscle cells within a cell population: 8 hour exposure; for relaxation of smooth muscle (in words): hUSMC, prolonged exposure (8 hours)
Text: An HTS test was developed to quantify the contractile state of a human ureteral smooth muscle cell (hUSMC). Quantification of hUSMC relaxation was achieved by performing single-cell analysis using a computer vision (CellProfiler, Broad Institute, MA) approach that related each cell's fluorescence intensity to its state of muscle relaxation (comparing phosphorylated myosin with unphosphorylated myosin).
Primary hUMSCs were harvested from patients and cultured. There were about 10,000 cells per well, and 100 μL of media per well. Each well represented one experiment, and 250 nL of drug per well was delivered with DMSO (0.25% DMSO by volume).
In the test of this example, single cell analysis was performed on each cell (identified via computer vision) after exposure to various drugs which enable relaxation in order to correlate each cell's contractile state to the therapeutic compound, exposure time, and dose.
These correlations were determined by analyzing the fluorescent intensity of smooth muscle cells, which is related to the contractile state of the muscles. When a smooth muscle cell is signaled to contract, phosphorylation of myosin light-chain (p-MLC) occurs, which is a biomarker of muscle contraction. Conversely, when smooth muscle is left unphosphorylated (MLC), muscle relaxation occurs. Therefore, smooth muscle contraction can be computed from the proportion of p-MLC to unphosphorylated-MLC.
The tested agents included those in the following table.

[2] = tested on: human ureteral smooth muscle cell (hUSMC); test: Cell viability of hUSMC in the HTS of Example 1
Protocol: Eight-point dosing curves were performed starting at 25 μM. […] The results were collected from three separate screening runs across three unique primary hUSMC lines (derived from three separate patients).
These relaxation percentages were derived after an 8 hour exposure.

[3] = tested on: hUSMCs; format: cell-based; details: human
[4] = tested on: whole porcine ureters; test: Bench top ex vivo model, phenylephrine-stimulated contractions, intraluminal delivery; set-up: species or system pig
Protocol: An ex vivo bench top model was designed to permit the testing of whole ureteral segments. Flow through the ureteral segments was regulated, and ranged from 0.25 mL/minute to 60 mL/minute. […] The intraluminal reservoirs contained either preheated saline buffer or dilutions of any candidate therapeutic agent.
The pounds per square inch (PSI) pressure readings were obtained using a fiber-optic pressure catheter.
For this test, a ureter was prepared through intraluminal delivery of saline (Krebs-Henseleit Buffer) (BUF) only (region “i”). The experiment then was initiated and phenylephrine [10 mM] was added to the Krebs infusion to stimulate baseline peristaltic contractions seen in patients with urinary stones (region “ii”). […] [1 μM]
Cumulative ureteral contractions were plotted over the course of the entire experiment, and are depicted at FIG. 8. For this test, a ureter was prepared through intraluminal delivery of saline (BUF) only (region “i”). The experiment was initiated and phenylephrine [10 mM] was added to the Krebs infusion to stimulate baseline peristaltic contractions seen in patients with urinary stones (region “ii”).

[5] = Protocol: A commercially available surgical lubricant (SURGILUBE® lubricant) was combined with a surfactant. The surfactant was Polysorbate 20, and 0.6 mL of the Polysorbate 20 was added to 19.4 mL of the surgical lubricant.
However, more surfactant may be added to increase drug concentration, e.g., up to about 500 μM.

[6] = tested on: hUSMCs; details: for Percentages of Cells that Remained Contracted After Treatment: Nifedipine 0 μM

**Q.** With `Cc1ccc(-c2cc(C(F)(F)F)nn2-c2ccc(S(N)(=O)=O)cc2)cc1` [Celecoxib] as the compound, how does the “relaxation of smooth muscle cells within a cell population” value ([1]; 12.5 μM) read?
**A.** 20%

**Q.** And the “relaxation of smooth muscle cells within a cell population” value ([1]; 25 μM)?
**A.** 30%

**Q.** What about the “toxicity to the tested cells (false hit)” value [2] of the same compound?
**A.** toxicity killed the tested cells

**Q.** For `CCOc1ccccc1OCCN[C@H](C)Cc1ccc(OC)c(S(N)(=O)=O)c1` [Tamsulosin], which cell population relaxation ([1]; 6.25 μM or greater) is on record?
**A.** ~20%

**Q.** And the “relaxation of smooth muscle (in words)” value [1]?
**A.** demonstrated efficacy at certain doses

**Q.** Which cell population relaxation ([1]; 1.56 μM or greater) does the source give for `CCCc1nc(C)c2c(=O)[nH]c(-c3cc(S(=O)(=O)N4CCN(CC)CC4)ccc3OCC)nn12` [Vardenafil] here?
**A.** ~20%

**Q.** Which results are given for `C[C@@H](N)[C@H]1CC[C@H](C(=O)Nc2ccncc2)CC1` [Y-27632]?
**A.** relaxation of smooth muscle cells within a cell population ([1]; 3.13 μM): 20%; hUSMC population relaxed (greatest effect, FIG. 1) ([1]; after an 8 hour exposure): about 40%; relaxation of smooth muscle (in words) ([1]; listed as ROCK Y-27632): significant relaxation of smooth muscle; relaxation of smooth muscle (in words) ([1]; listed as Y-27632 (ROCK)): relatively significant cell relaxation; Percentages of Cells that Retained Viability ([3]; 3.13 μM): 110%; Percentages of Cells that Retained Viability ([3]; 25 μM): 100%; Percentages of Cells that Retained Viability ([3]; 50 μM): 95%; reduction in contractile frequency ([4]; 10 μM intraluminally): 3 ×; contractile activity of ureter (in words) ([4]; 10 μM intraluminally, with 10 mM phenylephrine, listed as Y27632 (ROCK)): rapid relaxation of the ureter; frequency of peristaltic activity (in words) ([4]; 10 μM with 10 mM phenylephrine, region iii): significant decrease in frequency; reduction in the slope of linear regression of cumulative contractions ([4]; 10 μM, region iii vs other regions of FIG. 8): ≥ 3 ×; effect after removal from the infusion (region iv) ([4]; phenylephrine 10 mM and saline buffer continued): the effects were reversed; actual drug retention in the surgical lubricant/surfactant mixture [5]: about 200 μM; relaxation ([6]; 25 μM alone, 8 hour exposure): about 45%; Percentages of Cells that Remained Contracted After Treatment ([6]; ROCK 1.56 μM): 81%; Percentages of Cells that Remained Contracted After Treatment ([6]; ROCK 3.13 μM): 71%; Percentages of Cells that Remained Contracted After Treatment ([6]; ROCK 6.25 μM): 67%; Percentages of Cells that Remained Contracted After Treatment ([6]; ROCK 12.50 μM): 59%; Percentages of Cells that Remained Contracted After Treatment ([6]; ROCK 25.00 μM): 54%; Percentages of Cells that Remained Contracted After Treatment ([6]; ROCK 50.00 μM): 50%; Percentages of Cells that Remained Contracted After Treatment ([6]; ROCK […]): 86%
